In patent publication US20110003867A1, “NOVEL 2-ETHYL-METHYL-AMINO-3-AMIDO-6-AMINO-PYRIDINE DERIVATIVES USEFUL AS POTASSIUM CHANNEL ACTIVATORS” (NeuroSearch A/S, priority 2007, published 2011):

Target: T1, human Kv72+3 channels (Homo sapiens, UniProt O43525+O43526)
T1 construct: expressed in transfected cells
Assay: Patch-clamp on HEK293 cell lines stably expressing human Kv7.2+3 channels
Assay type: cell-based
Conditions: conc. 0.03 μM, −30 mV, 20 ms; baseline current defined as 100%; HEK293 cells
Source text: The effect obtained by these channel activators is described as a percentage increase in baseline current at a given concentration. The baseline current is defined as 100%, and an increase in current is expressed relative to this, i.e. an increase from 1 nA to 1.2 nA is reported as 120%.

CCN(C)c1nc(NCc2ccc(F)cc2)ccc1NC(=O)CC(C)(C)C [Compound 8, N-[2-Ethylmethylamino-6-(4-fluoro-benzylamino)-pyridin-3-yl]-3,3-dimethyl-butyramide]
I^K(%) increase in baseline current: 105%

CN(C)c1nc(NCc2ccc(F)cc2)ccc1NC(=O)Cc1cc(F)cc(F)c1 [Compound 1, N-[2-Dimethylamino-6-(4-fluoro-benzylamino)-pyridin-3-yl]-2-(3,5-difluoro-phenyl)-acetamide]
I^K(%) increase in baseline current: 685%

CCN(C)c1nc(NCc2ccc(F)cc2)ccc1NC(=O)[C@@H]1C[C@H]1c1ccccc1 (relative stereo) [Compound 6, trans-2-Phenyl-cyclopropanecarboxylic acid [2-Ethylmethylamino-6-(4-fluoro-benzylamino)-pyridin-3-yl]-amide]
I^K(%) increase in baseline current: 285%

CCN(C)c1nc(NCc2ccc(F)cc2)ccc1NC(=O)Cc1ccc(C(F)(F)F)c(F)c1 [Compound 3, N-[2-Ethylnnethylamino-6-(4-fluoro-benzylamino)-pyridin-3-yl]-2-(3-fluoro-4-trifluoromethyl-phenyl)-acetamide]
I^K(%) increase in baseline current: 268%

CCN(C)c1nc(NCC(C)C)ccc1NC(=O)Cc1cc(F)cc(F)c1 [Compound 11, 2-(3,5-Difluoro-phenyl)-N-[2-(ethyl-methyl-amino)-6-isobutylamino-pyridin-3-yl]-acetamide]
I^K(%) increase in baseline current: 548%
